Converted amounts (≈) assume the structure as drawn.
Assays:
[1] = Antioxidant activity assessed as inhibition of H2O2 radical scavenging activity incubated for 60 mins by UV-spectrophotometric method; assay type: functional
INS1(832/13) [2] = test: Cytotoxicity against rat INS1(832/13) cells assessed as cell viability at 3.5 nM in RPMI medium incubated for over night followed by insulin addition by Alamar Blue assay; assay type: cell-based; details: 0.0035 µM
[3] = Antioxidant activity assessed as inhibition of H2O2 radical scavenging activity incubated for 60 mins by UV-spectrophotometric method relative to control; assay type: functional
INS1(832/13) [4] = test: Cytotoxicity against rat INS1(832/13) cells assessed as cell viability upto 3 nM in RPMI medium incubated for over night followed by insulin addition by Alamar Blue assay; assay type: cell-based
INS1(832/13) [5] = test: cells; details: Rattus norvegicus, INS-1 832/13, 2 h
Description: Antidiabetic activity in glucose-treated rat INS1(832/13) cells assessed as increase in insulin release in presence of 3 mM glucose measured after 2 hrs by radioimmunoassay

INS1(832/13) [6] = test: Antidiabetic activity in glucose-treated rat INS1(832/13) cells assessed as increase in insulin release at 1 ug/ml in presence of 3 mM glucose measured after 2 hrs by radioimmunoassay (reference value: 52.25 +/- 2.15 %); assay type: functional
INS1(832/13) [7] = test: Antidiabetic activity in glucose-treated rat INS1(832/13) cells assessed as increase in insulin release at 10 ug/ml in presence of 3 mM glucose measured after 2 hrs by radioimmunoassay (reference value: 52.25 +/- 2.15 %); assay type: functional

| IC50 [1] [µg/mL] | SMILES | Activity (INS1(832/13) [2]) | inhibition [3] [%] | Activity (INS1(832/13) [4]) | IC50 (INS1(832/13) [5]) [nM] | inhibition (INH) (INS1(832/13) [6]) [%] | inhibition (INH) (INS1(832/13) [7]) [%] |
| --- | --- | --- | --- | --- | --- | --- | --- |
| 15.8 (≈ 32.6 µM) | Cc1cccc(-c2nnc3ccc(N4CCN(C(=O)OC(C)(C)C)C(Cc5ccccc5)C4)nn23)c1 (stereo unspecified) |  | 80.1 |  |  |  |  |
| 13.4 (≈ 34.9 µM) | Cc1cccc(-c2nnc3ccc(N4CCN(Cc5ccccc5)CC4)nn23)c1 |  | 86.2 |  |  |  |  |
| 25.4 (≈ 75.3 µM) | Cc1cccc(-c2nnc3ccc(N4CCN(CCN)CC4)nn23)c1 |  | 78.2 |  |  |  |  |
| 28.6 (≈ 85 µM) | CC(=O)N1CCN(c2ccc3nnc(-c4cccc(C)c4)n3n2)CC1 |  | 78.2 |  |  |  |  |
| 45.9 (≈ 115 µM) | COc1ccc(N2CCN(c3ccc4nnc(-c5cccc(C)c5)n4n3)CC2)cc1 |  | 75.6 |  |  |  |  |
| 85.5 (≈ 200 µM) | Cc1cccc(-c2nnc3ccc(N4CCN(Cc5ccccc5)C(C(=O)O)C4)nn23)c1 (stereo unspecified) |  | 69.4 |  |  |  |  |

The next lines start with the compound.

| SMILES | IC50 [1] [µg/mL] | Activity (INS1(832/13) [2]) | inhibition [3] [%] | Activity (INS1(832/13) [4]) | IC50 (INS1(832/13) [5]) [nM] | inhibition (INH) (INS1(832/13) [6]) [%] | inhibition (INH) (INS1(832/13) [7]) [%] |
| --- | --- | --- | --- | --- | --- | --- | --- |
| O=C1O[C@H]([C@@H](O)CO)C(O)=C1O [ASCORBIC ACID] | 25.3 (≈ 144 µM) |  |  |  |  |  |  |
| CCOC(=O)N1CCN(c2ccc3nnc(-c4cccc(C)c4)n3n2)CC1 | 1 (≈ 2.73 µM) | Toxic | 96.8 | Non-Toxic | 2.8 |  |  |
| Cc1cccc(-c2nnc3ccc(N4CCN(C(=O)c5ccccc5)CC4)nn23)c1 | 2.25 (≈ 5.65 µM) | Toxic | 94.1 | Non-Toxic | 1.5 |  |  |
| CCOc1cc(CC(=O)N[C@@H](CC(C)C)c2ccccc2N2CCCCC2)ccc1C(=O)O [REPAGLINIDE] |  |  |  |  | 1250 | 96.16 | 99.05 |
| Cc1cccc(-c2nnc3ccc(N4CCN(C(c5ccccc5)c5ccccc5)CC4)nn23)c1 | 1.75 (≈ 3.8 µM) |  | 93.2 |  | 4.8 |  |  |
| Cc1cccc(-c2nnc3ccc(N4CCN(S(C)(=O)=O)CC4)nn23)c1 | 10.8 (≈ 29 µM) |  | 84.2 |  |  |  |  |
| Cc1cccc(-c2nnc3ccc(N4CCN(Cc5ccc(F)cc5)CC4)nn23)c1 | 2 (≈ 4.97 µM) |  | 91.2 |  | 3.9 |  |  |
| Cc1cccc(-c2nnc3ccc(N4CCN(CCOCCO)CC4)nn23)c1 | 16.8 (≈ 43.9 µM) |  | 83.2 |  |  |  |  |

Source: ChEMBL document CHEMBL4376848, “Synthesis and discovery of triazolo-pyridazine-6-yl-substituted piperazines as effective anti-diabetic drugs; evaluated over dipeptidyl peptidase-4 inhibition mechanism and insulinotropic activities” (Eur J Med Chem, 2020)
